{
  "source": "patent US11976083B2",
  "about": "“Inhibitors of peptidylarginine deiminases” (Gilead Sciences, Inc., priority 2020, dated 2024)",
  "data": [
    {"target": "T1, human PAD4 (Homo sapiens, UniProt Q9UM07)", "T1 construct": "human PAD4 (NM_012387), A2-P663, was PCR amplified; His-SUMO (N, cleaved yes); made in house; host or cells: E. coli BL21(DE3)", "T1 sequence (Q9UM07 2-663)": "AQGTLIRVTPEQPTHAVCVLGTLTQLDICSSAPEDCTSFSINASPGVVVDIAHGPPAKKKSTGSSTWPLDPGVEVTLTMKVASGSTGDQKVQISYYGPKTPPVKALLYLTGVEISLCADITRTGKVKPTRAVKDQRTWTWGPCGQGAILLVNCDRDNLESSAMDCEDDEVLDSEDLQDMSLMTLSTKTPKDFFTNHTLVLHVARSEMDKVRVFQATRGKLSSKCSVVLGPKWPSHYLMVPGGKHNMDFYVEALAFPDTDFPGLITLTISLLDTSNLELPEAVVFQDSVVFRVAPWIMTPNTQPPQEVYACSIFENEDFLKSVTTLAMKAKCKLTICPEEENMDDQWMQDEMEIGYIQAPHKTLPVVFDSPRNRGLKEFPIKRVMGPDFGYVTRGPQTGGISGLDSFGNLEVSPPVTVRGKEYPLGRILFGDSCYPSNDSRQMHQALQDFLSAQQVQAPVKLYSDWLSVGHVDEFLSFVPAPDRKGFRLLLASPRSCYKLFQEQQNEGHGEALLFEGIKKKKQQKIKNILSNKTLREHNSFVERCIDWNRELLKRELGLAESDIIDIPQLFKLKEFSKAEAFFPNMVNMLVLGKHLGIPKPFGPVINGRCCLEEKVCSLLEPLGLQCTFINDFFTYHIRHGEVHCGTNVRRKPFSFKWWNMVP", "test": "In vitro PAD4 BAEE biochemical assay", "conditions": "BAEE substrate 3 mM, 5 nM PAD4, 2 mM calcium chloride; geometric mean of multiple experiments", "method_in_brief": "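Assay was run at 25 °C using 3 mM BAEE and 5 nM human PAD4 after a 30 min compound preincubation; ammonia produced over 2 h was quantified by OPA-derived fluorescence. Full inhibition was defined by 50 µM BB-Cl-Amidine, and IC50 came from variable-slope nonlinear regression.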", "units": {"IC50": "nM"}, "values": [
      {"compound": "COc1cc(C(=O)N2CC[C@@H](OC)[C@@H](N)C2)cc2nc(-c3cc4ccc5nc4n3CCCCCc3cnccc3C(=O)N[C@@H]5C)n(C)c12", "note": "[Example 358, (2~{R})-17-[5-[(3~{S},4~{R})-3-amino-4-methoxy-piperidine-1-carbonyl]-7-methoxy-1-methyl-benzimidazol-2-yl]-2-methyl-3,8,16,22-tetrazatetracyclo[14.5.2.0^{5,10}.0^{19,23}] tricosa-1(22),5,7,9,17,19(23),20-heptaen-4-one]", "IC50": 83},
      {"compound": "COc1cc(C(=O)N2CC[C@@H](OC)[C@@H](N)C2)cc2nc(-c3cc4ccc5nc4n3CCCCCc3cnc(Cl)cc3C(=O)N[C@@H]5C)n(C)c12", "note": "[Example 359, (2~{R})-17-[5-[(3~{S},4~{R})-3-amino-4-methoxy-piperidine-1-carbonyl]-7-methoxy-1-methyl-benzimidazol-2-yl]-7-chloro-2-methyl-3,8,16,22-tetrazatetracyclo[14.5.2.0^{5,10}.0^{19,23}] tricosa-1(22),5,7,9,17,19(23),20-heptaen-4-one]", "IC50": 104},
      {"compound": "COc1cc(C(=O)N2CC[C@@H](OC)[C@@H](N)C2)cc2nc(-c3cc4ccc5nc4n3CCCCCc3cccc(F)c3C(=O)N[C@@H]5C)n(C)c12", "note": "[Example 360, (2~{R})-17-[5-[(3~{S},4~{R})-3-amino-4-methoxy-piperidine-1-carbonyl]-7-methoxy-1-methyl-benzimidazol-2-yl]-6-fluoro-2-methyl-3,16,22-triazatetracyclo[14.5.2.0^{5,10}.0^{19,23}] tricosa-1(22),5,7,9,17,19(23),20-heptaen-4-one]", "IC50": 58},
      {"compound": "COc1cc(C(=O)N2CCC[C@@H](N)C2)cc2nc(-c3cc4ccc5nc4n3CCCCCc3cccc(C)c3C(=O)N[C@@H]5C)n(C)c12", "note": "[Example 361, (2~{R})-17-[5-[(3~{R})-3-aminopiperidine-1-carbonyl]-7-methoxy-1-methyl-benzimidazol-2-yl]-2,6-dimethyl-3,16,22-triazatetracyclo[14.5.2.0^{5,10}.0^{19,23}] tricosa-1(22),5(10),6,8,17,19(23),20-heptaen-4-one]", "IC50": 74},
      {"compound": "COc1cc(C(=O)N2CC[C@@H](OC)[C@@H](N)C2)cc2nc(-c3cc4ccc5nc4n3CCCCCc3cccc(C)c3C(=O)N[C@@H]5C)n(C)c12", "note": "[Example 362, (2~{R})-17-[5-[(3~{S},4~{R})-3-amino-4-methoxy-piperidine-1-carbonyl]-7-methoxy-1-methyl-benzimidazol-2-yl]-2,6-dimethyl-3,16,22-triazatetracyclo[14.5.2.0^{5,10}.0^{19,23}] tricosa-1(22),5(10),6,8,17,19(23),20-heptaen-4-one]", "IC50": 137},
      {"compound": "COc1cc(C(=O)N[C@H]2CNCC[C@@H]2F)cc2nc(-c3cc4ccc5nc4n3CCCCCc3cccc(C)c3C(=O)N[C@@H]5C)n(C)c12", "note": "[Example 363, 2-[(2~{R})-2,6-dimethyl-4-oxo-3,16,22-triazatetracyclo[14.5.2.0^{5,10}.0^{19,23}]tricosa-1(22),5(10),6,8,17,19(23),20-heptaen-17-yl]-~{N}-[(3~{S},4~{S})-4-fluoro-3-piperidyl]-7-methoxy-1-methyl-benzimidazole-5-carboxamide]", "IC50": 110},
      {"compound": "COc1cc(C(=O)N2CC[C@@H](OC)[C@@H](N)C2)cc2nc(-c3cc4ccc5nc4n3C[C@H]3C[C@H]3CCCC(C)(C)C(=O)N[C@@H]5C)n(C)c12", "note": "[Example 366, (3~{S),5~{R},12~{R})-18-[5-[(3~{S},4~{R})-3-amino-4-methoxy-piperidine-1-carbonyl]-7-methoxy-1-methyl-benzimidazol-2-yl]-9,9,12-trimethyl-1,11,20-triazatetracyclo[11.5.2.0^{3,5}.0^{16,19}] icosa-13(20),14,16(19),17-tetraen-10-one]", "IC50": 120},
      {"compound": "COc1cc(C(=O)N[C@H]2CNCC[C@@H]2F)cc2nc(-c3cc4ccc5nc4n3C[C@H]3C[C@H]3CCCC(C)(C)C(=O)N[C@@H]5C)n(C)c12", "note": "[Example 367, ~{N}-[(3~{S},4~{S})-4-fluoro-3-piperidyl]-7-methoxy-1-methyl-2-[(3~{S},5~{R},12~{R})-9,9,12-trimethyl-10-oxo-1,11,20-triazatetracyclo[11.5.2.0^{3,5}.0^{16,19}]icosa-13(20),14,16(19),17-tetraen-18-yl]benzimidazole-5-carboxamide]", "IC50": 82},
      {"compound": "COc1cc(C(=O)N[C@H]2CNCC[C@@H]2F)cc2nc(-c3cc4ccc5nc4n3CCCCC[C@H]3[C@H](C(=O)N[C@@H]5C)C3(F)F)n(C)c12", "note": "[Example 368, 2-[(2~{R},5~{R},7~{S})-6,6-difluoro-2-methyl-4-oxo-3,13,19-triazatetracyclo[11.5.2.0^{5,7}.0^{16,20}]icosa-1(19),14,16(20),17-tetraen-14-yl]- ~{N}-[(3~{S},4~{S})-4-fluoro-3-piperidyl]-7-methoxy-1-methyl-benzimidazole-5-carboxamide]", "IC50": 34},
      {"compound": "COc1cc(C(=O)N[C@H]2CNCC[C@@H]2F)cc2nc(-c3cc4ccc5nc4n3CCCCC[C@@H]3[C@@H](C(=O)N[C@@H]5C)C3(F)F)n(C)c12", "note": "[Example 369, 2-[(2~{R},5~{S},7~{R})-6,6-difluoro-2-methyl-4-oxo-3,13,19-triazatetracyclo[11.5.2.0^{5,7}.0^{16,20}]icosa-1(19),14,16(20),17-tetraen-14-yl]- ~{N}-[(3~{S},4~{S})-4-fluoro-3-piperidyl]-7-methoxy-1-methyl-benzimidazole-5-carboxamide]", "IC50": 37},
      {"compound": "COc1cc(C(=O)N2CC[C@@H](OC)[C@@H](N)C2)cc2nc(-c3cc4ccc5nc4n3C[C@H]3C[C@H]3CCC[C@](C)(C(F)(F)F)C(=O)N[C@@H]5C)n(C)c12", "note": "[Example 370, (3~{S),5~{R},9~{S},12~{R})-18-[5-[(3~{S},4~{R})-3-amino-4-methoxy-piperidine-1-carbonyl]-7-methoxy-1-methyl-benzimidazol-2-yl]-9,12-dimethyl-9-(trifluoromethyl)-1,11,20-triazatetracyclo[11.5.2.0^{3,5}.0^{16,19}] icosa-13(20),14,16(19),17-tetraen-10-one]", "IC50": 163},
      {"compound": "COc1cc(C(=O)N[C@H]2CNCC[C@@H]2F)cc2nc(-c3cc4ccc5nc4n3C[C@H]3C[C@H]3CCC[C@](C)(C(F)(F)F)C(=O)N[C@@H]5C)n(C)c12", "note": "[Example 371, 2-[(3~{S},5~{R},9~{S},12~{R})-9,12-dimethyl-10-oxo-9-(trifluoromethyl)-1,11,20-triazatetracyclo[11.5.2.0^{3,5}.0^{16,19}]icosa-13(20),14,16(19),17-tetraen-18-yl]-~{N}-[(3~{S},4~{S})-4-fluoro-3-piperidyl]-7-methoxy-1-methyl-benzimidazole-5-carboxamide]", "IC50": 222},
      {"compound": "COc1cc(C(=O)N2CC[C@@H](OC)[C@@H](N)C2)cc2nc(-c3cc4ccc5nc4n3C[C@H]3C[C@H]3CCC[C@@](C)(C(F)(F)F)C(=O)N[C@@H]5C)n(C)c12", "note": "[Example 372, (3~{S},5~{R},9~{R},12~{R})-18-[5-[(3~{S},4~{R})-3-amino-4-methoxy-piperidine-1-carbonyl]-7-methoxy-1-methyl-benzimidazol-2-yl]-9,12-dimethyl-9-(trifluoromethyl)-1,11,20-triazatetracyclo[11.5.2.0^{3,5}.0^{16,19}] icosa-13(20),14,16(19),17-tetraen-10-one]", "IC50": 183},
      {"compound": "COc1cc(C(=O)NC2CNCC[C@@H]2F)cc2nc(-c3cc4ccc5nc4n3C[C@H]3C[C@H]3CCC[C@@](C)(C(F)(F)F)C(=O)N[C@@H]5C)n(C)c12", "note": "(stereo partly drawn) [Example 373, 2-[(3~{S},5~{R},9~{R},12~{R})-9,12-dimethyl-10-oxo-9-(trifluoromethyl)-1,11,20-triazatetracyclo[11.5.2.0^{3,5}.0^{16,19}]icosa-13(20),14,16(19),17-tetraen-18-yl]-~{N}-[(3~{S},4~{S})-4-fluoro-3-piperidyl]-7-methoxy-1-methyl-benzimidazole-5-carboxamide]", "IC50": 254},
      {"compound": "COc1cc(C(=O)N2CC[C@@H](OC)[C@@H](N)C2)cc2nc(-c3cc4ccc5nc4n3CCCCCCC(F)(F)C(=O)N[C@@H]5C)n(C)c12", "note": "[Example 374, (11~{R})-17-[5-[(3~{S},4~{R})-3-amino-4-methoxy-piperidine-1-carbonyl]-7-methoxy-1-methyl-benzimidazol-2-yl]-8,8-difluoro-11-methyl-1,10,19-triazatricyclo[10.5.2.0^{15,18}]nonadeca-12(19),13,15(18),16-tetraen-9-one]", "IC50": 121},
      {"compound": "COc1cc(C(=O)N[C@H]2CNCC[C@@H]2F)cc2nc(-c3cc4ccc5nc4n3CCCCCCC(F)(F)C(=O)N[C@@H]5C)n(C)c12", "note": "[Example 375, 2-[(11~{R})-8,8-difluoro-11-methyl-9-oxo-1,10,19-triazatricyclo[10.5.2.0^{15,18}]nonadeca-12(19),13,15(18),16-tetraen-17-yl]-~ {N}-[(3~{S},4~{S})-4-fluoro-3-piperidyl]-7-methoxy-1-methyl-benzimidazole-5-carboxamide]", "IC50": 109},
      {"compound": "C[C@H]1NC(=O)C(C)(C)CCCCCCn2c(-c3nc4cc(C(=O)N[C@H]5CNCC[C@@H]5F)ccc4n3C3CC3)cc3ccc1nc32", "note": "[Example 376, 1-cyclopropyl-~{N}-[(3~{S},4~{S})-4-fluoro-3-piperidyl]-2-[(11~{R})-8,8,11-trimethyl-9-oxo-1,10,19-triazatricyclo[10.5.2.0^{15,18}]nonadeca-12(19),13,15(18),16-tetraen-17-yl]benzimidazole-5-carboxamide]", "IC50": 82},
      {"compound": "C[C@H]1NC(=O)[C@@H]2[C@@H](CCCC(F)(F)Cn3c(-c4nc5cc(C(=O)N[C@H]6CNCC[C@@H]6F)c(F)cc5n4C)cc4ccc1nc43)C2(F)F", "note": "[Example 377, 6-fluoro-~{N}-[(3~{S},4~{S})-4-fluoro-3-piperidyl]-1-methyl-2-[(2~{R},5~{S},7~{R})-6,6,11,11-tetrafluoro-2-methyl-4-oxo-3,13,19-triazatetracyclo[11.5.2.0^{5,7}.0^{16,20}]icosa-1(19),14,16(20),17-tetraen-14-yl]benzimidazole-5-carboxamide]", "IC50": 32}
    ]}
  ]
}
